Assay in all cases: ITC
(In ITC the heat of successive injections is recorded.)

The test system of test [1] is BCL2 3-6-2 (DNA, G4) CGGGCACGGGAAAAAAGGGACGGGAAC
The following applies: K+ 150 mM (KCl); 20 mM Tris, 1 mM EDTA, 30% DMSO, pH 7.2, 25 °C; mode 1 of 3.

In test [2] the test system is BCL2 3-5-3 (DNA, G4) CGGGCACGGGAAAAAGGGAACGGGAAC
To be noted: K+ 150 mM (KCl); 20 mM Tris, 1 mM EDTA, 30% DMSO, pH 7.2, 25 °C; mode 1 of 3.

In test [3] the test system is KRAS 6-4-4 (DNA, G4) GGGCAATATGGGAAAAGGGAAAAGGGAAAA
To be noted: K+ 150 mM (KCl); 20 mM Tris, 1 mM EDTA, 30% DMSO, pH 7.2, 25 °C; mode 1 of 3.

Test [4] concerns KRAS 6-4-6 (DNA, G4) GGGCAATATGGGAAAAGGGAAAAAAGGGAA
The following applies: K+ 150 mM (KCl); 20 mM Tris, 1 mM EDTA, 30% DMSO, pH 7.2, 25 °C; mode 1 of 3.

Test [5] relates to hTel22 (DNA, G4) AGGGTTAGGGTTAGGGTTAGGG
The following applies: 20 mM Tris, 1 mM EDTA, 30% DMSO, pH 7.2, 25 °C, mode 1 of 3.

Regarding `N=C(N)c1ccc(N=NNc2ccc(C(=N)N)cc2)cc1`, the Ka is 41.5 × 10^7 in test [1]; 17.5 × 10^7 in test [2]; 25.5 × 10^7 in test [3]; 3.85 × 10^7 in test [4]; 13.7 × 10^7 in test [5] (K+ 150 mM (KCl)); 18.2 × 10^7 in test [5] (Na+ 150 mM (NaCl)).
